{"source": "patent US8030442B2", "about": "“Treatment of injury to the brain by inhibition of acid sensing ion channels” (priority 2004, dated 2011)", "key": {"cortical neurons [1]": {"tested_on": "cortical neurons", "assay_type": "cell-based, mouse", "conditions": "with MK801, CNQX, nimodipine, ω-conotoxin MVIIC; n=6-8"}, "[2]": {"tested_on": "cultured hippocampal neurons", "experiment": "Seizure-like electrical activity of cultured hippocampal neurons on kyneuric acid removal", "assay_type": "cell-based", "conditions": "during kyneuric acid removal", "experimental": "The neurons were grown in the presence of kyneuric acid. Removal of the kyneuric acid promoted spontaneous, sustained electrical activity by the neurons.\nThe magnitude and periodicity of the peaks in the voltage traces changed upon exposure to amiloride."}, "hippocampal slice": {"tested_on": "hippocampal slice", "experiment": "Seizure-like activity in hippocampal slices in magnesium-free aCSF", "conditions": "100 μM for thirty minutes", "experimental": "Hippocampal slices were bathed in magnesium-free artificial cerebrospinal fluid (aCSF). The absence of magnesium in the fluid makes neurons in the slice susceptible to seizure-like electrical activity. Accordingly, the hippocampal slice maintained in magnesium-free fluid provides a model system for epilepsy. Electrical potential was measured prior to addition of any compounds, after treatment with PcTX venom followed by electrical stimulation, after PcTX venom was removed, with amiloride, during transient removal of kyneuric acid, and kainic acid to promote seizure activity in the mice with or without injection of PcTX venom.\nThe three graphs in panel 23A show the electrical potential measured from the same hippocampal slice after electrical stimulation near the beginning of each voltage trace, to promote depolarization followed by re-polarization (a peak(s) in the voltage trace). Electrical stimulation of a control hippocampal slice, bathed in fluid with a physiological magnesium level, produced a single peak in the voltage trace (not shown here). In contrast, as shown here in the first graph of panel 23A, electrical stimulation of a hippocampal slice maintained in aCSF without magnesium produced a series of individual peaks, indicative of seizure-like activity."}, "[3]": {"biological_target": "T1, ASICs in cortical neurons (Mus musculus, UniProt Q6NXK8)", "T1 construct": "indicating significant Ca^2+ permeability of ASICs in the majority of cortical neurons; endogenous in cells; host or cells: primary cultured mouse cortical neurons", "T1 sequence (Q6NXK8 1-526)": "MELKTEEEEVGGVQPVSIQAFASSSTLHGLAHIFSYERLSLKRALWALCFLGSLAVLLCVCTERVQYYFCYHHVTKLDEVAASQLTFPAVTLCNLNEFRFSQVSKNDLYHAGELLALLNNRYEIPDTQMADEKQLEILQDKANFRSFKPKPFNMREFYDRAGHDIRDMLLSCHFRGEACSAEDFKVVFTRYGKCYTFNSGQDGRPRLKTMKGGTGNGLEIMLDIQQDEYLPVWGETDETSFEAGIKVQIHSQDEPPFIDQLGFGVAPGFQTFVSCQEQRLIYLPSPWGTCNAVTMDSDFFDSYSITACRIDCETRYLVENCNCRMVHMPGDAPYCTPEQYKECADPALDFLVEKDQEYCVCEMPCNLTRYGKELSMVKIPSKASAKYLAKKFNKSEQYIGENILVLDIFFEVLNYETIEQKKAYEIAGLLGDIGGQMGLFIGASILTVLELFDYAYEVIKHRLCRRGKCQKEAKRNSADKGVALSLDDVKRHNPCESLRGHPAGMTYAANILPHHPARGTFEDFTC", "experiment": "Ca2+-mediated acid-activated current in cortical neurons (10 mM Ca2+ as only charge carrier)", "assay_type": "cell-based", "conditions": "pH 6.0, -60 mV, n=6, read-out: peak amplitude of Ca2+-mediated current, % of control"}, "[4]": {"tested_on": "cortical neurons cultured from ASIC+/+ and ASIC1-/- mice", "experiment": "LDH release in neurons cultured from ASIC+/+ and ASIC1-/- mice", "assay_type": "cell-based, mouse", "experimental": "Following anesthesia with halothane, cerebral cortices were dissected from PI ASIC1^+/+ and ASIC1^−/− mice and incubated with 0.05% trypsin-EDTA for 10 min at 37° C. Tissues were then triturated with fire-polished glass pipettes and plated on poly-L-ornithine-coated 24-well plates or 25×25 mm glass coverslips at a density of 2.5×10^5 cells per well or 10^6 cells per coverslip. Neurons were cultured with MEM supplemented with 10% horse serum (for E16 cultures) or Neurobasal medium supplemented with B27 (for P1 cultures) and used for electrophysiology and toxicity studies after 12 days. Glial growth was suppressed by addition of 5-fluoro-2-deoxyuridine and uridine, yielding cultured cells with ˜90% neurons as determined by NeuN and GFAP staining (data not shown).\nCells were treated with either pH 7.4 or 6.0 ECF for 1 hr. LDH release was measured 24 hr after acid incubation. […] Background absorbance at 620 was subtracted."}, "TRPM7 channels": {"biological_target": "TRPM7 channels (Homo sapiens, UniProt Q96QT4)", "sequence (Q96QT4 whole entry, the tested form may be a part)": "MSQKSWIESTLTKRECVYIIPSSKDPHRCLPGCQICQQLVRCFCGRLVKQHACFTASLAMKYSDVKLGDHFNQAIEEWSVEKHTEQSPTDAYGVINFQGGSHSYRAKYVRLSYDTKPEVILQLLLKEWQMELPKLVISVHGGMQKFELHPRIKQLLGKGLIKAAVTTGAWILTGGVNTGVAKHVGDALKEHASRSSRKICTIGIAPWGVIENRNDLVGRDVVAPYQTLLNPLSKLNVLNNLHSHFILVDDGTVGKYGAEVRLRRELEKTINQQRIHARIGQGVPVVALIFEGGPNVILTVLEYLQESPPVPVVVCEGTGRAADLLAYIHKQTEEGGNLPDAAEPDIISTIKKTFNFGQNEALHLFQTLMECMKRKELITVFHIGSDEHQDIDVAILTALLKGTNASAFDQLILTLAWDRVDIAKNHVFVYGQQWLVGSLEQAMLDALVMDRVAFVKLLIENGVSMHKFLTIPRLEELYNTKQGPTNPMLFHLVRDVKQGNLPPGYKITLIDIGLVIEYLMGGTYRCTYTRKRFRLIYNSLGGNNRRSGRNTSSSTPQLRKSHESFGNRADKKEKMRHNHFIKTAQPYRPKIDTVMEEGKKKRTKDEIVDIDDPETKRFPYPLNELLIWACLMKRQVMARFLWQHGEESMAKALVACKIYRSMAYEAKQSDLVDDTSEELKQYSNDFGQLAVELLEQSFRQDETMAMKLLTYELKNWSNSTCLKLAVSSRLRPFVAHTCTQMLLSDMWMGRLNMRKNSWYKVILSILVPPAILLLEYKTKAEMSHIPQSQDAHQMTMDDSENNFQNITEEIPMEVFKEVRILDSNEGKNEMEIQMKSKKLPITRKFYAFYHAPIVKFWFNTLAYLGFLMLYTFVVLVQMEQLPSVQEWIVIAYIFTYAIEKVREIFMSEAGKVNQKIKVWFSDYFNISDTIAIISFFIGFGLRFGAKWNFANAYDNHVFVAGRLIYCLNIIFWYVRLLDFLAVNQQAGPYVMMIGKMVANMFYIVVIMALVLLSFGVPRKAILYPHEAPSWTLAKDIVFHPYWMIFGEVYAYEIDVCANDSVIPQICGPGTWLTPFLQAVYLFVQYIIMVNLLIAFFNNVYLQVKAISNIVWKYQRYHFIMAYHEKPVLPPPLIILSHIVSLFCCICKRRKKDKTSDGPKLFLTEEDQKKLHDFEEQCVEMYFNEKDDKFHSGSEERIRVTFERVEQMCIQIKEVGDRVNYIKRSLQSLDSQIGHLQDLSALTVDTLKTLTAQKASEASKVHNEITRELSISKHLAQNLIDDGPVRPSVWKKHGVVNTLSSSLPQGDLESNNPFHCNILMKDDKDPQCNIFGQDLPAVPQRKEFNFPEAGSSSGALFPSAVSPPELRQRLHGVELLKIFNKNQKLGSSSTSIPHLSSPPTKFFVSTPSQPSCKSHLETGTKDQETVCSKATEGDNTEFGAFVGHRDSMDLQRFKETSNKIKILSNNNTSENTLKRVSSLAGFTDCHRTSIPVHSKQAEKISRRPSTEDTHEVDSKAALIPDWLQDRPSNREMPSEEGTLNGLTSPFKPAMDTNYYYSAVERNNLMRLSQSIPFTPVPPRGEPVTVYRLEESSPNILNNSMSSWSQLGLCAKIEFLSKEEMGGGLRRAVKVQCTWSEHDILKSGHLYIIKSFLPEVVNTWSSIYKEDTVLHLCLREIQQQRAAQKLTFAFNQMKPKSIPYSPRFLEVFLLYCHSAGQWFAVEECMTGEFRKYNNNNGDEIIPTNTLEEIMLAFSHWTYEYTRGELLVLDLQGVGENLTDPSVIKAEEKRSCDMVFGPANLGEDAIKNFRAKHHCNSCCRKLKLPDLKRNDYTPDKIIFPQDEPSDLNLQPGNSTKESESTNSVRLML", "experiment": "TRPM7 conductance, current-voltage relationship", "assay_type": "cell-based", "conditions": "100 μM or 500 μM, ~10 min", "experimental": "In FIG. 36, after a stable current-voltage relationship (I-V curve) was recorded, amiloride at either 100 μM or 500 μM was perfused to the cell for ˜10 min. The I-V curve in the presence of amilolide was then generated (FIG. 36 A). Similarly in FIG. 36B, after a stable I-V curve was recorded, PcTX venom at 300 ng/ml was perfused to the cell for ˜10 min. The I-V curve in the presence of PcTX venom was then generated."}, "cortical neurons [5]": {"tested_on": "cortical neurons", "experiment": "Acid-induced LDH release in cortical neurons"}, "[6]": {"tested_on": "COS-7 cells stably transfected with ASIC1a", "experiment": "Acid-induced LDH release in ASIC1a-transfected COS-7 cells", "assay_type": "cell-based", "conditions": "100 μM, 1 hr pH 6.0, 24 hr", "experimental": "COS-7 cells, a cell line commonly used for expression of ASICs due to its lack of endogenous channels (Chen et al. 1998; Immke and McCleskey 2001 and Escoubas et al. 2000), were cultured in MEM with 10% HS and 1% PenStrep (GIBCO). At ˜50% confluence, cells were cotransfected with cDNAs for ASICs and GFP in pcDNA3 vector using FuGENE6 transfection reagents (Roche Molecular Biochemicals). DNA for ASICs (0.75 μg) and 0.25 μg of DNA for GFP were used for each 35 mm dish. GFP-positive cells were selected for patch-clamp recording 48 hr after transfection. For stable transfection of ASIC1a, 500 μg/mL G418 was added to culture medium 1 week following the transfection. The surviving G418-resistant cells were further plated and passed for >5 passages in the presence of G418. Cells were then checked with patch-clamp and immunofluorescent staining for the expression of ASIC1a.\nTo provide additional evidence that activation of ASIC1a is involved in acid injury, acid injury of nontransfected and ASIC1a transfected COS-7 cells as described above was studied. Following confluence (36-48 hr after plating), cells were treated with either pH 7.4 or 6.0 ECF for 1 hr.\nLDH release was measured 24 hr after acid incubation. […] Background absorbance at 620 was subtracted."}, "[7]": {"tested_on": "rat model of transient focal ischemia", "assay_type": "in vivo", "conditions": "n=11"}}, "note": "Entries after “also recorded” stand apart in the source; their conditions may differ."}
{"smiles": "N=C(N)NC(=O)c1nc(Cl)c(N)nc1N", "note": "[amiloride]", "values": [{"measurement": "peak and sustained acid-induced increases in [Ca2+]i", "setting": "cortical neurons [1]", "value": "largely inhibited"}, {"measurement": "seizure-like electrical activity of neurons", "setting": "[2]", "value": "blocked the seizure-like electrical activity"}, {"measurement": "peaks in voltage trace after electrical stimulation", "setting": "hippocampal slice", "value": "reduced both the number and amplitude of peaks"}, {"measurement": "remaining activity at 100 µM", "setting": "[3]", "value": 26, "unit": "%"}, {"measurement": "acid-induced LDH release in ASIC+/+ neurons", "setting": "[4]; 1 hr pH 6.0, n=8-12", "value": "reduced"}, {"measurement": "effect on acid-induced LDH release in ASIC1-/- neurons", "setting": "[4]; knockout of the ASIC1 gene, n=8", "value": "eliminated the effect"}, {"measurement": "conductance of TRPM7 channels", "setting": "TRPM7 channels", "value": "had no effect; also recorded: lack of blockade"}, {"measurement": "LDH release at 24 hr, % of maximal", "setting": "cortical neurons [5]; 100 μM, 10 min before and during 1 hr pH 6.0, without blocker 45.3%±3.8%", "value": "31.1%±2.5%"}, {"measurement": "LDH release on prolonged incubation", "setting": "cortical neurons [5]; alone, e.g. 5 hr, n=8", "value": "increased LDH release"}, {"measurement": "baseline LDH release", "setting": "cortical neurons [5]; pH 7.4 ECF for 1 hr", "value": "did not affect baseline LDH release"}, {"measurement": "acid-induced LDH release", "setting": "[6]", "value": "inhibited acid-induced LDH release"}, {"measurement": "infarct volume", "setting": "[7]", "value": "229.7±41.1", "unit": "mm^3"}]}
